From patent US12581252B2, “Substituted pyrrolo[3,4-b]pyridines as PI3K-α inhibitors” (Relay Therapeutics, Inc., priority 2020, dated 2026)
pIC50: −log10 of the molar value.

molecular target: H1047R PIK3CA enzyme (Homo sapiens, UniProt P42336, H1047R); assay: ADP-Glo Biochemical PIK3CA Kinase Assay
Sequence (P42336 whole entry H1047R): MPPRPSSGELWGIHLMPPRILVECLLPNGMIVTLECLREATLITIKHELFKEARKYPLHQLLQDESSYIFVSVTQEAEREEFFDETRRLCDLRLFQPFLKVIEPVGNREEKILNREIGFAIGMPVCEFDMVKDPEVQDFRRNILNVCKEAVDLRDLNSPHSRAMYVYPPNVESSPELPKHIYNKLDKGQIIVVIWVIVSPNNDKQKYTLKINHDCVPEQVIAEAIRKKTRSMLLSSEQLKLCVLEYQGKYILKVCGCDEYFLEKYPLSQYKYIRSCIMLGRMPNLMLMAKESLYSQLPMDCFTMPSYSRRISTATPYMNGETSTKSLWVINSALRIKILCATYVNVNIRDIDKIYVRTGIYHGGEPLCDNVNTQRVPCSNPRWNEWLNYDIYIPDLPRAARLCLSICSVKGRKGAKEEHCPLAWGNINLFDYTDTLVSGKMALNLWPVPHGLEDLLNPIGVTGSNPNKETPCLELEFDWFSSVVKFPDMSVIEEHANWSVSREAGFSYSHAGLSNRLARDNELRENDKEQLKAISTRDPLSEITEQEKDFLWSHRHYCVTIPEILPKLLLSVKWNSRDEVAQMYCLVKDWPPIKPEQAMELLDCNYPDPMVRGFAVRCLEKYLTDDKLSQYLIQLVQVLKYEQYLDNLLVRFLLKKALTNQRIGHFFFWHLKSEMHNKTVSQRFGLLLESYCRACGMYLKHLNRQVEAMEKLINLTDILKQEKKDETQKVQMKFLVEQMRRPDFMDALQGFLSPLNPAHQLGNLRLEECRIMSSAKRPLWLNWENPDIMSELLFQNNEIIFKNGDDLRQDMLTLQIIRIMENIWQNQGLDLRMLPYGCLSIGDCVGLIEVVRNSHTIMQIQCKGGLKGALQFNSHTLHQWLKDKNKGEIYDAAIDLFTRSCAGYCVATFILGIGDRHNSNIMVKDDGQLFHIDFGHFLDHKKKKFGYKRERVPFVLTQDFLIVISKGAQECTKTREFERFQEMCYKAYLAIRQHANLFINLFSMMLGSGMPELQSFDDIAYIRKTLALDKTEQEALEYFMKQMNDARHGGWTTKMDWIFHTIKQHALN
Sequence (P27986 whole entry partner): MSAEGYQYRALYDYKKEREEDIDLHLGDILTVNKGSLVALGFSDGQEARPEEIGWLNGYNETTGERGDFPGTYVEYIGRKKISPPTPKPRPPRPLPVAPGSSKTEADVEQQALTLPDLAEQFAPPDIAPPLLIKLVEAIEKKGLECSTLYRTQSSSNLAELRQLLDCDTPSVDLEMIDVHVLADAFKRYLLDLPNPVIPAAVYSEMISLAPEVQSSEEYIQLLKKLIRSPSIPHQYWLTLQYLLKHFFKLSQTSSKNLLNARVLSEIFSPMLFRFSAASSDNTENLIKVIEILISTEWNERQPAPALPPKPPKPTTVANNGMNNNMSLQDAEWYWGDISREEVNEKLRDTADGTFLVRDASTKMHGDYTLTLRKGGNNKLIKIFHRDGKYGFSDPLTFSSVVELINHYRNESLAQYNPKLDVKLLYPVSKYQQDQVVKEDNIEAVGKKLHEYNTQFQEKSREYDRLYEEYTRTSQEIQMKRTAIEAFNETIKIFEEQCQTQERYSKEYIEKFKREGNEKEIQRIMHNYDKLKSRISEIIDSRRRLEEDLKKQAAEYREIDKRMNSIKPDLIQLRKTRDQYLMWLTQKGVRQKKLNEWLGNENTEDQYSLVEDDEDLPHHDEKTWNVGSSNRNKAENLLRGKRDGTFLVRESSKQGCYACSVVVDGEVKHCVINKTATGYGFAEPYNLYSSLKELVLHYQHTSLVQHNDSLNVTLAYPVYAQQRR

pIC50, 4.00 to 5.00:
CN(C)c1cc(NC(=O)N2C[C@](O)(C(F)(F)F)c3cc(F)ccc32)c2c(n1)C(=O)N[C@@H]2c1cc(F)ccc1Cl (single isomer, unassigned) [Compound I-2692]
Cc1ccccc1C1NC(=O)c2cccc(Nc3cc4ccccc4nn3)c21 (stereo not shown) [Compound I-27]
O=C1N[C@H](c2cc(F)ccc2Cl)c2c(NC(=O)N3C[C@](O)(C(F)F)c4ccccc43)cccc21 (single isomer, unassigned) [Compound I-2486]
CC(C)(O)c1cc(NC(=O)c2cc(F)cc(Cl)c2)c2c(c1)C(=O)N[C@@H]2c1cc(F)ccc1Cl [Compound I-299]
O=C1N[C@H](c2cc(F)ccc2Cl)c2c(NC(=O)N3C[C@H](O)c4cc(F)c(F)cc43)cccc21 (single isomer, unassigned) [Compound I-2292]
O=C1NC(c2cc(F)ccc2Cl)c2c(NC(=O)C34CC(C(O)(C5CC5)C5CC5)(C3)C4)cccc21 (stereo not shown) [Compound I-2118]
O=C1NC(c2cc(F)ccc2Cl)c2c(Nc3nsc4ccccc34)cc(Br)cc21 (stereo not shown) [Compound I-1060]

pIC50, 5.00 to 6.00:
O=C1NC(c2cc(F)ccc2Cl)c2c(NC(=O)[C@H]3C[C@H](O)C[C@@H](C(F)(F)F)C3)cc(Br)cc21 (stereo partly shown) [Compound I-2080]
O=C(Nc1cccc2c1[C@H](C13C[C@H]4C[C@@H](C1)C[C@@H](C3)C4)NC2=O)c1cc(F)cc(C(F)(F)F)c1 (racemic) [Compound I-2075]
O=C1N[C@H](c2cc(F)ccc2Cl)c2c(NC(=O)c3nsc4ccccc34)cc(-c3ccc4ncnn4c3)cc21 (stereo in doubt) [Compound I-1830]
Cc1ccccc1[C@H]1NC(=O)c2cc(CO)cc(NC(=O)c3nsc4ccccc34)c21 [Compound I-307]
O=C1NC(c2cc(F)ccc2Cl)c2c(NC(=O)N3CC(CO)c4ccccc43)cccc21 (mixture of isomers) [Compound I-2314]
CCC1C(C)CCN1C(=O)Nc1cccc2c1C(c1cc(F)ccc1Cl)NC2=O (mixture of isomers) [Compound I-2394]
CCOC(=O)Cc1cc(F)cc(C(=O)Nc2cc(CC(=O)OCC)cc3c2C(c2cc(F)ccc2Cl)NC3=O)c1 (stereo not shown) [Compound I-697]
Cc1nccn1-c1cc(NC(=O)N2C[C@](O)(C(F)(F)F)c3cc(F)ccc32)c2c(c1)C(=O)N[C@@H]2c1cc(F)ccc1Cl (single isomer, unassigned) [Compound I-2662]
O=C(Nc1cc(-c2cn(C(F)F)cn2)cc2c1[C@@H](c1cc(F)ccc1Cl)NC2=O)c1cc(F)cc(C(F)(F)F)c1 [Compound I-1918]
Nc1ccc(C(=O)Nc2cc(Br)cc3c2C(c2cc(F)ccc2Cl)NC3=O)cc1C(F)(F)F (stereo not shown) [Compound I-719]
O=C1N[C@H](c2cccc(F)c2F)c2c(NC(=O)c3csc4ccccc34)ccnc21 [Compound I-23]
O=C1N[C@@H](c2cc(F)ccc2Cl)c2c(NC(=O)[C@H]3C[C@H](O)C[C@@H](C(F)(F)F)C3)cccc21 (single isomer, unassigned) [Compound I-2177]
O=C1N[C@H](c2cc(F)ccc2Cl)c2c(NC(=O)N3C[C@](O)(C(F)(F)F)c4cc(F)ccc43)cc(N3CCCC3=O)cc21 (single isomer, unassigned) [Compound I-2666]

pIC50, ≥ 7.00:
O=C(Nc1cc(-c2ccn3nc(C4CC4)nc3c2)cc2c1C(c1cc(F)ccc1Cl)NC2=O)c1cc(F)cc(C(F)(F)F)c1 (stereo not shown) [Compound I-1651]
O=C(Nc1cccc2c1C(c1cc(F)c(F)cc1C(F)F)NC2=O)c1cc(F)cc(C(F)(F)F)c1 (stereo not shown) [Compound I-330]
CS(=O)(=O)Cc1cc(NC(=O)c2cc(F)cc(C(F)(F)F)c2)c2c(c1)C(=O)N[C@H]2c1cc(F)ccc1Cl [Compound I-618]
O=C(Nc1cc(Cn2cccn2)cc2c1C(c1cc(F)ccc1Cl)NC2=O)c1cc(F)cc(C(F)(F)F)c1 (stereo not shown) [Compound I-1497]
Cn1nccc1C(F)c1cc(NC(=O)c2cc(F)cc(C(F)(F)F)c2)c2c(c1)C(=O)NC2c1cc(F)ccc1Cl (mixture of isomers) [Compound I-1379]
O=C1NC(c2cc(F)ccc2Cl)c2c1cccc2-c1nc2c(F)cc(C(F)(F)F)cc2[nH]1 (stereo not shown) [Compound I-1944]
O=C(Nc1cc(-c2cnn(S(=O)(=O)C(F)F)c2)cc2c1[C@H](c1cc(F)ccc1Cl)NC2=O)c1cc(F)cc(C(F)(F)F)c1 [Compound I-2093]
O=C(Nc1cc(-c2ccn3ccnc3c2)cc2c1[C@H](c1cc(F)ccc1Cl)NC2=O)c1cc(F)cc(C(F)(F)F)c1 [Compound I-1450]
Cc1ccccc1C1NC(=O)c2c(C(N)=O)ccc(NC(=O)c3csc4ccccc34)c21 (stereo not shown) [Compound I-149, 7-(Benzo[b]thiophene-3-carboxamido)-3-oxo-1-(o-tolyl)isoindoline-4-carboxamide]
[2H][C@]1(c2cc(F)ccc2Cl)NC(=O)c2cc(-c3ccc4ncnn4c3)cc(NC(=O)c3cc(F)cc(C(F)(F)F)c3)c21 (single isomer, unassigned) [Compound I-1600]
Cc1ncc(C#N)c(-c2cc(NC(=O)c3cc(F)cc(C(F)(F)F)c3)c3c(c2)C(=O)NC3c2cc(F)ccc2Cl)n1 (stereo not shown) [Compound I-1369]
O=C(Nc1cc(-c2ccncc2F)nc2c1C(c1cc(F)ccc1Cl)NC2=O)c1cc(F)cc(C(F)(F)F)c1 (stereo not shown) [Compound I-548]
O=C(Nc1cc(-c2ccc3ncnn3c2)cc2c1[C@H](c1cc(F)ccc1Cl)NC2=O)c1cc(F)c(F)c(Cl)c1 (stereo in doubt) [Compound I-1173]
C[S+]([O-])c1ccccc1-c1cc(NC(=O)c2cc(F)cc(C(F)(F)F)c2)c2c(c1)C(=O)NC2c1cc(F)ccc1Cl (stereo not shown) [Compound I-1150]
Cc1ccccc1C1NC(=O)c2cc(C#N)cc(NC(=O)c3nsc4ccccc34)c21 (stereo not shown) [Compound I-116]
O=C(Nc1cc(NC(=O)C2(O)CC2)cc2c1C(c1cc(F)ccc1Cl)NC2=O)c1cc(F)cc(C(F)(F)F)c1 (stereo not shown) [Compound I-592]
O=C(Nc1cc(-c2ccc3nc[nH]c3c2)cc2c1C(c1cc(F)ccc1Cl)NC2=O)c1cc(F)cc(C(F)(F)F)c1 (stereo not shown) [Compound I-1035]
CC(C)(O)c1cnc2ccc(-c3cc(NC(=O)c4cc(F)cc(C(F)(F)F)c4)c4c(c3)C(=O)NC4c3cc(F)ccc3Cl)cc2c1 (stereo not shown) [Compound I-1540]
C=CC(=O)Nc1cc(NC(=O)c2cc(F)cc(C(F)(F)F)c2)c2c(c1)C(=O)NC2c1cc(F)ccc1Cl (stereo not shown) [Compound I-406]
Nc1nnc2ccc(-c3cc(NC(=O)c4cc(F)cc(C(F)(F)F)c4)c4c(c3)C(=O)N[C@H]4c3cc(F)ccc3Cl)cn12 [Compound I-1449]

pIC50, 6.30 to 7.00:
NCCOc1cc(NC(=O)c2cc(F)cc(C(F)(F)F)c2)c2c(c1)C(=O)NC2c1cc(F)ccc1Cl (stereo not shown) [Compound I-1298]
Cc1ccccc1C1NC(=O)c2c(C)ccc(NC(=O)c3csc4ccccc34)c21 (stereo not shown) [Compound I-153, N-(7-Methyl-1-oxo-3-(o-tolyl)isoindolin-4-yl)benzo[b]thiophene-3-carboxamide]
Cc1ccccc1[C@H]1NC(=O)c2c(C#N)ccc(NC(=O)c3cc(F)cc(C(F)(F)F)c3)c21 [Compound I-397]
